Measured values published in patent US20250099536A1, “PRISTINAMYCIN IA AND FLOPRISTIN COMBINATIONS IN TREATING OR PREVENTING BACTERIAL INFECTIONS” (AIMMAX THERAPEUTICS, INC., priority 2021, published 2025).
In brackets after ≈: the same amount, converted by molar mass. Where two headings read alike, the source gives them in different places. Each block holds one compound with its values, some of them ahead of it. Positions of bridges follow the written chain, without caps; N, C: chain ends. Non-standard residues stand in square brackets, D forms with d. Residues, ends and D or L forms follow the SMILES beside them. *: point of attachment. NMePhe(4-NMe2) = CN[C@@H](Cc1ccc(N(C)C)cc1)C(=O)O; Pip(4-oxo) = O=C1CCN[C@H](C(=O)O)C1; Picolinoyl(3-OH) = O=C(c1ncccc1O)*; Phg = N[C@H](C(=O)O)c1ccccc1; dAbu = CC[C@@H](N)C(=O)O

Assays:
Streptococcus pneumoniae [1] = assay: Broth microdilution MIC across streptogramin B:A ratios; type: cell-based
Mycoplasma genitalium = assay: MIC across streptogramin B:A ratios (CLSI mycoplasma method); type: cell-based; conditions: 10 strains and isolates
Staphylococcus aureus = assay: Broth microdilution MIC across streptogramin B:A ratios; type: cell-based
Streptococcus pneumoniae [2] = assay: MBC assay; type: cell-based; conditions: S. pneumoniae strains evaluated
Neisseria gonorrhoeae = assay: Broth microdilution MIC across streptogramin B:A ratios; type: cell-based
[3] = system: S. aureus BAA-1717 strain; assay: MIC against the infecting strain of the thigh model; conditions: Staphylococcus aureus, BAA1717

MIC [3]: 2 µg/mL (≈ 5.93 µM)
SMILES: CC(=O)NC[C@H]1CN(c2ccc(N3CCOCC3)c(F)c2)C(=O)O1 [linezolid]

MIC (Streptococcus pneumoniae [1]; strain ATCC 49619): 2 µg/mL | MIC (Streptococcus pneumoniae [1]; strain ATCC 700677): 8 µg/mL | MIC (Streptococcus pneumoniae [1]; strain MMX 3031): 4 µg/mL | MIC (Streptococcus pneumoniae [1]; strain MMX 3033): 4 µg/mL | MIC (Streptococcus pneumoniae [1]; strain MMX 4937): 2 µg/mL | MIC range (Mycoplasma genitalium): 0.015 to 0.5 µg/mL | MIC (Staphylococcus aureus; strain ATCC 29213): 1 µg/mL | MIC (Staphylococcus aureus; strain ATCC BAA 977): 1 µg/mL | MIC (Staphylococcus aureus; strain ATCC BAA-976): 0.5 µg/mL | MIC (Staphylococcus aureus; strain MMX 2336): 0.5 µg/mL | MIC (Staphylococcus aureus; strain MMX 3035): 0.5 µg/mL | MIC (Staphylococcus aureus; strain MMX 3037): 0.25 µg/mL | MIC (Staphylococcus aureus; strain MMX 3095): 1 µg/mL | MIC (Staphylococcus aureus; strain MMX 3098): 1 µg/mL | MIC (Staphylococcus aureus; strain MMX 3885): 0.5 µg/mL | MIC (Staphylococcus aureus; strain MMX 3983): 0.5 µg/mL | MIC (Staphylococcus aureus; strain MMX 4670): 0.25 µg/mL | MIC (Staphylococcus aureus; strain MMX 5787): 2 µg/mL | MIC (Staphylococcus aureus; strain NRS 271): 2 µg/mL | MIC (Staphylococcus aureus; strain NRS 382): 1 µg/mL | MIC (Staphylococcus aureus; strain NRS 384): 1 µg/mL | MIC (Neisseria gonorrhoeae; strain ATCC 49226): 0.12 µg/mL | MIC (Neisseria gonorrhoeae; strain CDC 0167): 0.03 µg/mL | MIC (Neisseria gonorrhoeae; strain CDC 0175): 0.03 µg/mL | MIC (Neisseria gonorrhoeae; strain CDC 0177): 0.06 µg/mL | MIC (Neisseria gonorrhoeae; strain CDC 0181): 0.12 µg/mL | MIC (Neisseria gonorrhoeae; strain CDC 0194): 0.06 µg/mL | MIC (Neisseria gonorrhoeae; strain MMX 6921): 0.12 µg/mL | MIC (Neisseria gonorrhoeae; strain WHO F): 0.015 µg/mL | MIC (Neisseria gonorrhoeae; strain WHO G): 0.12 µg/mL | MIC (Neisseria gonorrhoeae; strain WHO K): 0.25 µg/mL | MIC (Neisseria gonorrhoeae; strain WHO L): 0.12 µg/mL | MIC (Neisseria gonorrhoeae; strain WHO M): 0.12 µg/mL | MIC (Neisseria gonorrhoeae; strain WHO N): 0.12 µg/mL | MIC (Neisseria gonorrhoeae; strain WHO O): 0.12 µg/mL | MIC (Neisseria gonorrhoeae; strain WHO P): 0.5 µg/mL | MIC (Neisseria gonorrhoeae; strain WHO U): 0.12 µg/mL | MIC (Neisseria gonorrhoeae; strain WHO V): 0.25 µg/mL | MIC (Neisseria gonorrhoeae; strain WHO W): 0.12 µg/mL | MIC (Neisseria gonorrhoeae; strain WHO X): 0.12 µg/mL | MIC (Neisseria gonorrhoeae; strain WHO Y): 0.12 µg/mL
SMILES: CC1=C\[C@@H](O)C[C@@H](F)Cc2nc(co2)C(=O)N2CCC[C@@H]2C(=O)O[C@H](C(C)C)[C@H](C)/C=C/C(=O)NC\C=C\1 [CBA1 0:100, flopristin]
Strains against which bactericidal (MBC divided by MIC ≤4) (Streptococcus pneumoniae [2]): 5 out of the 5

Second part, the compound before the results:

SMILES: CC[C@H]1NC(=O)[C@@H](NC(=O)c2ncccc2O)[C@@H](C)OC(=O)[C@H](c2ccccc2)NC(=O)[C@@H]2CC(=O)CCN2C(=O)[C@H](Cc2ccc(N(C)C)cc2)N(C)C(=O)[C@@H]2CCCN2C1=O [CBA1 100:0, pristinamycin IA] ({Picolinoyl(3-OH)}-T[dAbu]P[NMePhe(4-NMe2)][Pip(4-oxo)][Phg]; ester 1-C)
MIC (Streptococcus pneumoniae [1]; strain ATCC 49619): 1 µg/mL | MIC (Streptococcus pneumoniae [1]; strain ATCC 700677): 32 µg/mL | MIC (Streptococcus pneumoniae [1]; strain MMX 3031): 0.5 µg/mL | MIC (Streptococcus pneumoniae [1]; strain MMX 3033): 2 µg/mL | MIC (Streptococcus pneumoniae [1]; strain MMX 4937): 1 µg/mL | MIC range (Mycoplasma genitalium): 2 to 16 µg/mL | MIC (Staphylococcus aureus; strain ATCC 29213): 8 µg/mL | MIC (Staphylococcus aureus; strain ATCC BAA 977): 16 µg/mL | MIC (Staphylococcus aureus; strain ATCC BAA-976): 8 µg/mL | MIC (Staphylococcus aureus; strain MMX 2336): 8 µg/mL | MIC (Staphylococcus aureus; strain MMX 3035): >64 µg/mL | MIC (Staphylococcus aureus; strain MMX 3037): >64 µg/mL | MIC (Staphylococcus aureus; strain MMX 3095): 8 µg/mL | MIC (Staphylococcus aureus; strain MMX 3098): 8 µg/mL | MIC (Staphylococcus aureus; strain MMX 3885): 8 µg/mL | MIC (Staphylococcus aureus; strain MMX 3983): >64 µg/mL | MIC (Staphylococcus aureus; strain MMX 4670): >64 µg/mL | MIC (Staphylococcus aureus; strain MMX 5787): >64 µg/mL | MIC (Staphylococcus aureus; strain NRS 271): 8 µg/mL | MIC (Staphylococcus aureus; strain NRS 382): >64 µg/mL | MIC (Staphylococcus aureus; strain NRS 384): 8 µg/mL | Strains against which bactericidal (MBC divided by MIC ≤4) (Streptococcus pneumoniae [2]): 2 out of the 4 | MIC (Neisseria gonorrhoeae; strain ATCC 49226): >64 µg/mL | MIC (Neisseria gonorrhoeae; strain CDC 0167): >64 µg/mL | MIC (Neisseria gonorrhoeae; strain CDC 0175): >64 µg/mL | MIC (Neisseria gonorrhoeae; strain CDC 0177): >64 µg/mL | MIC (Neisseria gonorrhoeae; strain CDC 0181): >64 µg/mL | MIC (Neisseria gonorrhoeae; strain CDC 0194): 32 µg/mL | MIC (Neisseria gonorrhoeae; strain MMX 6921): >64 µg/mL | MIC (Neisseria gonorrhoeae; strain WHO F): 32 µg/mL | MIC (Neisseria gonorrhoeae; strain WHO G): >64 µg/mL | MIC (Neisseria gonorrhoeae; strain WHO K): >64 µg/mL | MIC (Neisseria gonorrhoeae; strain WHO L): 64 µg/mL | MIC (Neisseria gonorrhoeae; strain WHO M): 64 µg/mL | MIC (Neisseria gonorrhoeae; strain WHO N): >64 µg/mL | MIC (Neisseria gonorrhoeae; strain WHO O): 64 µg/mL | MIC (Neisseria gonorrhoeae; strain WHO P): >64 µg/mL | MIC (Neisseria gonorrhoeae; strain WHO U): >64 µg/mL | MIC (Neisseria gonorrhoeae; strain WHO V): >64 µg/mL | MIC (Neisseria gonorrhoeae; strain WHO W): 64 µg/mL | MIC (Neisseria gonorrhoeae; strain WHO X): >64 µg/mL | MIC (Neisseria gonorrhoeae; strain WHO Y): 32 µg/mL

SMILES: CN[C@H](CC(C)C)C(=O)N[C@H]1C(=O)N[C@@H](CC(N)=O)C(=O)N[C@H]2C(=O)N[C@H]3C(=O)N[C@H](C(=O)N[C@H](C(=O)O)c4cc(O)cc(O)c4-c4cc3ccc4O)[C@H](O)c3ccc(c(Cl)c3)Oc3cc2cc(c3O[C@@H]2O[C@H](CO)[C@@H](O)[C@H](O)[C@H]2O[C@H]2C[C@](C)(N)[C@H](O)[C@H](C)O2)Oc2ccc(cc2Cl)[C@H]1O [vancomycin]
MIC [3]: 1 µg/mL (≈ 0.69 µM)

SMILES: CC[C@H]1OC(=O)[C@H](C)[C@@H](O[C@H]2C[C@@](C)(OC)[C@@H](O)[C@H](C)O2)[C@H](C)[C@@H](O[C@@H]2O[C@H](C)C[C@H](N(C)C)[C@H]2O)[C@](C)(O)C[C@@H](C)CN(C)[C@H](C)[C@@H](O)[C@]1(C)O [AZI, Azithromycin, reference compound]
MIC (Neisseria gonorrhoeae; Neisseria gonorrhoeae, ATCC49226, strain ATCC 49226, read-out: MIC): 0.5 µg/mL | MIC (Neisseria gonorrhoeae; Neisseria gonorrhoeae, strain CDC 0167, read-out: MIC): 16 µg/mL | MIC (Neisseria gonorrhoeae; Neisseria gonorrhoeae, strain CDC 0175, read-out: MIC): 16 µg/mL | MIC (Neisseria gonorrhoeae; Neisseria gonorrhoeae, strain CDC 0177, read-out: MIC): 4 µg/mL | MIC (Neisseria gonorrhoeae; Neisseria gonorrhoeae, strain CDC 0181, read-out: MIC): > 16 µg/mL | MIC (Neisseria gonorrhoeae; Neisseria gonorrhoeae, strain CDC 0194, read-out: MIC): 0.5 µg/mL | MIC (Neisseria gonorrhoeae; Neisseria gonorrhoeae, strain MMX 6921, read-out: MIC): 16 µg/mL | MIC (Neisseria gonorrhoeae; Neisseria gonorrhoeae, strain WHO F, read-out: MIC): 0.12 µg/mL | MIC (Neisseria gonorrhoeae; Neisseria gonorrhoeae, strain WHO G, read-out: MIC): 0.25 µg/mL | MIC (Neisseria gonorrhoeae; Neisseria gonorrhoeae, strain WHO K, read-out: MIC): 0.5 µg/mL | MIC (Neisseria gonorrhoeae; Neisseria gonorrhoeae, strain WHO L, read-out: MIC): 0.5 µg/mL | MIC (Neisseria gonorrhoeae; Neisseria gonorrhoeae, strain WHO M, read-out: MIC): 0.5 µg/mL | MIC (Neisseria gonorrhoeae; Neisseria gonorrhoeae, strain WHO N, read-out: MIC): 0.25 µg/mL | MIC (Neisseria gonorrhoeae; Neisseria gonorrhoeae, strain WHO O, read-out: MIC): 0.5 µg/mL | MIC (Neisseria gonorrhoeae; Neisseria gonorrhoeae, strain WHO P, read-out: MIC): 8 µg/mL | MIC (Neisseria gonorrhoeae; Neisseria gonorrhoeae, strain WHO U, read-out: MIC): 8 µg/mL | MIC (Neisseria gonorrhoeae; Neisseria gonorrhoeae, strain WHO V, read-out: MIC): > 16 µg/mL | MIC (Neisseria gonorrhoeae; Neisseria gonorrhoeae, strain WHO W, read-out: MIC): 0.5 µg/mL | MIC (Neisseria gonorrhoeae; Neisseria gonorrhoeae, strain WHO X, read-out: MIC): 1 µg/mL | MIC (Neisseria gonorrhoeae; Neisseria gonorrhoeae, strain WHO Y, read-out: MIC): 1 µg/mL
